# ChEMBL document CHEMBL3885861, “Open TG-GATES”
# Organism: Rattus norvegicus
# Assay: Open TG-GATES - Regimen: Daily Repeat
# Format: toxicity, organism-based, Sprague-Dawley
# Parameters: regimen Daily Repeat, gender Male, age 6 weeks
# Conditions: in vivo, po, 30 mg/kg, route gavage, dose level Middle; for APTT / Bas / Eos / Fbg / Hb / Ht / Lym / MCH / MCHC / MCV / Mono / Neu / PT / Plat / RBC / Ret / WBC: tissue Blood; for KIDNEY_L / KIDNEY_R / KIDNEY_TOTAL: tissue Kidney; for LIVER: tissue Liver; for A/G / ALP / ALT / AST / BUN / CRE / Ca / Cl / DBIL / GLC / IP / K / LDH / Na / PL / RALB / TBIL / TC / TG / TP / gamma-GTP: tissue Plasma
compound,measurement,setting,value
CN(C)CCN(Cc1cccs1)c1ccccn1,TERMINAL_BW,"72 h, time 3 day",210.2 g
same,APTT,"72 h, time 3 day",20.9 s
same,Bas,"72 h, time 3 day",0%
same,Eos,"72 h, time 3 day",0.6%
same,Fbg,"72 h, time 3 day",325.4 mg/dL
same,Hb,"72 h, time 3 day",13.2 g/dL
same,Ht,"72 h, time 3 day",38.8%
same,Lym,"72 h, time 3 day",80%
same,MCH,"72 h, time 3 day",21.7 pg
same,MCHC,"72 h, time 3 day",34%
same,MCV,"72 h, time 3 day",63.8 fL
same,Mono,"72 h, time 3 day",2%
same,Neu,"72 h, time 3 day",16.4%
same,PT,"72 h, time 3 day",15.9 s
same,Plat,"72 h, time 3 day",116.7 x10_4/uL
same,RBC,"72 h, time 3 day",609 x10_4/ul
same,Ret,"72 h, time 3 day",6.1%
same,WBC,"72 h, time 3 day",94.3 x10_2/uL
same,KIDNEY_L,"72 h, time 3 day",1 g
same,KIDNEY_R,"72 h, time 3 day",1 g
same,KIDNEY_TOTAL,"72 h, time 3 day",2 g
same,LIVER,"72 h, time 3 day",10.2 g
same,A/G,"72 h, time 3 day",1.2
same,ALP,"72 h, time 3 day",1737.4 IU/L
same,ALT,"72 h, time 3 day",45.2 IU/L
same,AST,"72 h, time 3 day",75.8 IU/L
same,BUN,"72 h, time 3 day",15 mg/dL
same,CRE,"72 h, time 3 day",0.1 mg/dL
same,Ca,"72 h, time 3 day",11 mg/dL
same,Cl,"72 h, time 3 day",106.2 meq/L
same,DBIL,"72 h, time 3 day",0 mg/dL
same,GLC,"72 h, time 3 day",175.4 mg/dL
same,IP,"72 h, time 3 day",7.7 mg/dL
same,K,"72 h, time 3 day",4.3 meq/L
same,LDH,"72 h, time 3 day",224.4 IU/L
same,Na,"72 h, time 3 day",142 meq/L
same,PL,"72 h, time 3 day",140.8 mg/dL
same,RALB,"72 h, time 3 day",2.9 g/dL
same,TBIL,"72 h, time 3 day",0.012 mg/dL
same,TC,"72 h, time 3 day",72.6 mg/dL
same,TG,"72 h, time 3 day",82 mg/dL
same,TP,"72 h, time 3 day",5.4 g/dL
same,gamma-GTP,"72 h, time 3 day",1.2 IU/L
same,TERMINAL_BW,"[…], time 7 day",254.5 g
same,TERMINAL_BW,"[…], time 14 day",275 g
same,TERMINAL_BW,"[…], time 28 day",322.8 g
same,APTT,"[…], time 7 day",20.7 s
same,Bas,"[…], time 7 day",0%
same,Eos,"[…], time 7 day",0.8%
same,Fbg,"[…], time 7 day",304.2 mg/dL
same,Hb,"[…], time 7 day",13.2 g/dL
same,Ht,"[…], time 7 day",39.1%
same,Lym,"[…], time 7 day",78.6%
same,MCH,"[…], time 7 day",21.4 pg
same,MCHC,"[…], time 7 day",33.7%
same,MCV,"[…], time 7 day",63.5 fL
same,Mono,"[…], time 7 day",1.6%
same,Neu,"[…], time 7 day",18%
same,PT,"[…], time 7 day",15.9 s
same,Plat,"[…], time 7 day",120.9 x10_4/uL
same,RBC,"[…], time 7 day",617 x10_4/ul
same,Ret,"[…], time 7 day",6.3%
same,WBC,"[…], time 7 day",124 x10_2/uL
same,APTT,"[…], time 14 day",21.4 s
same,Bas,"[…], time 14 day",0%
same,Eos,"[…], time 14 day",1%
same,Fbg,"[…], time 14 day",309.6 mg/dL
same,Hb,"[…], time 14 day",14.2 g/dL
same,Ht,"[…], time 14 day",41.2%
same,Lym,"[…], time 14 day",77.8%
same,MCH,"[…], time 14 day",20.5 pg
same,MCHC,"[…], time 14 day",34.4%
same,MCV,"[…], time 14 day",59.6 fL
same,Mono,"[…], time 14 day",2.4%
same,Neu,"[…], time 14 day",18.6%
same,PT,"[…], time 14 day",16.2 s
same,Plat,"[…], time 14 day",108.7 x10_4/uL
same,RBC,"[…], time 14 day",691.6 x10_4/ul
same,Ret,"[…], time 14 day",3.9%
same,WBC,"[…], time 14 day",110.7 x10_2/uL
same,APTT,"[…], time 28 day",20.7 s
same,Bas,"[…], time 28 day",0%
same,Eos,"[…], time 28 day",1.4%
same,Fbg,"[…], time 28 day",282 mg/dL
same,Hb,"[…], time 28 day",14.6 g/dL
same,Ht,"[…], time 28 day",42.2%
same,Lym,"[…], time 28 day",74.2%
same,MCH,"[…], time 28 day",19.2 pg
same,MCHC,"[…], time 28 day",34.5%
same,MCV,"[…], time 28 day",55.5 fL
same,Mono,"[…], time 28 day",2.6%
same,Neu,"[…], time 28 day",21.4%
same,PT,"[…], time 28 day",16.1 s
same,Plat,"[…], time 28 day",106.9 x10_4/uL
same,RBC,"[…], time 28 day",760.6 x10_4/ul
same,Ret,"[…], time 28 day",2.7%
same,WBC,"[…], time 28 day",115.8 x10_2/uL
same,KIDNEY_L,"[…], time 7 day",1.1 g
same,KIDNEY_R,"[…], time 7 day",1.1 g
same,KIDNEY_TOTAL,"[…], time 7 day",2.2 g
same,KIDNEY_L,"[…], time 14 day",1.1 g
same,KIDNEY_R,"[…], time 14 day",1.2 g
same,KIDNEY_TOTAL,"[…], time 14 day",2.3 g
same,KIDNEY_L,"[…], time 28 day",1.3 g
same,KIDNEY_R,"[…], time 28 day",1.3 g
same,KIDNEY_TOTAL,"[…], time 28 day",2.5 g
same,LIVER,"[…], time 7 day",11.7 g
same,LIVER,"[…], time 14 day",11.9 g
same,LIVER,"[…], time 28 day",13.7 g
same,A/G,"[…], time 7 day",1.1
same,ALP,"[…], time 7 day",1578.6 IU/L
same,ALT,"[…], time 7 day",40.4 IU/L
same,AST,"[…], time 7 day",69.2 IU/L
same,BUN,"[…], time 7 day",17.6 mg/dL
same,CRE,"[…], time 7 day",0.2 mg/dL
same,Ca,"[…], time 7 day",10.7 mg/dL
same,Cl,"[…], time 7 day",107 meq/L
same,DBIL,"[…], time 7 day",0 mg/dL
same,GLC,"[…], time 7 day",170.4 mg/dL
same,IP,"[…], time 7 day",7 mg/dL
same,K,"[…], time 7 day",4.3 meq/L
same,LDH,"[…], time 7 day",132.4 IU/L
same,Na,"[…], time 7 day",144.4 meq/L
same,PL,"[…], time 7 day",134.4 mg/dL
same,RALB,"[…], time 7 day",2.9 g/dL
same,TBIL,"[…], time 7 day",0.012 mg/dL
same,TC,"[…], time 7 day",71.4 mg/dL
same,TG,"[…], time 7 day",64.8 mg/dL
same,TP,"[…], time 7 day",5.4 g/dL
same,gamma-GTP,"[…], time 7 day",1.8 IU/L
same,A/G,"[…], time 14 day",1.1
same,ALP,"[…], time 14 day",1753 IU/L
same,ALT,"[…], time 14 day",54.4 IU/L
same,AST,"[…], time 14 day",98.2 IU/L
same,BUN,"[…], time 14 day",18.8 mg/dL
same,CRE,"[…], time 14 day",0.2 mg/dL
same,Ca,"[…], time 14 day",10.3 mg/dL
same,Cl,"[…], time 14 day",107.8 meq/L
same,DBIL,"[…], time 14 day",0.008 mg/dL
same,GLC,"[…], time 14 day",166.8 mg/dL
same,IP,"[…], time 14 day",6.8 mg/dL
same,K,"[…], time 14 day",4.1 meq/L
same,LDH,"[…], time 14 day",177.4 IU/L
same,Na,"[…], time 14 day",143.8 meq/L
same,PL,"[…], time 14 day",131.8 mg/dL
same,RALB,"[…], time 14 day",2.9 g/dL
same,TBIL,"[…], time 14 day",0.026 mg/dL
same,TC,"[…], time 14 day",70.2 mg/dL
same,TG,"[…], time 14 day",56 mg/dL
same,TP,"[…], time 14 day",5.5 g/dL
same,gamma-GTP,"[…], time 14 day",2 IU/L
same,A/G,"[…], time 28 day",1.1
same,ALP,"[…], time 28 day",1511.8 IU/L
same,ALT,"[…], time 28 day",74.6 IU/L
same,AST,"[…], time 28 day",129.2 IU/L
same,BUN,"[…], time 28 day",17.6 mg/dL
same,CRE,"[…], time 28 day",0.2 mg/dL
same,Ca,"[…], time 28 day",10.3 mg/dL
same,Cl,"[…], time 28 day",107 meq/L
same,DBIL,"[…], time 28 day",0.008 mg/dL
same,GLC,"[…], time 28 day",169 mg/dL
same,IP,"[…], time 28 day",6.2 mg/dL
same,K,"[…], time 28 day",4.2 meq/L
same,LDH,"[…], time 28 day",182.2 IU/L
same,Na,"[…], time 28 day",141.8 meq/L
same,PL,"[…], time 28 day",140.4 mg/dL
same,RALB,"[…], time 28 day",3 g/dL
same,TBIL,"[…], time 28 day",0.022 mg/dL
same,TC,"[…], time 28 day",80 mg/dL
same,TG,"[…], time 28 day",39.4 mg/dL
same,TP,"[…], time 28 day",5.6 g/dL
same,gamma-GTP,"[…], time 28 day",2.8 IU/L
